# From patent US20230322717A1, “SOLID FORM OF PYRAZINE SUBSTITUTED NICOTINAMIDE, AND PREPARATION AND USE THEREOF” (Shenzhen TargetRx, Inc., priority 2020, published 2023)
# Tests used:
# Type in all cases: physicochemical
# [1] = Dissolution study of compound A tablets (solubilizer and glidant study)
# [2] = Dynamic moisture adsorption and desorption analysis (DVS)
# Protocol: The instrument model used for dynamic moisture adsorption and desorption analysis was IGA Sorp (Hidentity Isochema). The samples were measured in a gradient mode with a moisture range of 0% to 90%, wherein the humidity increment of each gradient was 10%.
# [3] = Cooling crystallization: solubility of the crystal form I of compound A in heated solvents; conditions: organic solvent or mixture, thermodynamic from solid
# Protocol: About 30 mg of the crystal form I of compound A was added to different solvents and heated until dissolved. The resulting solution was then slowly cooled to room temperature. PLM and XRPD tests were performed on the resulting solid crystal forms.
# [4] = Solubility study of the starting material (the crystal form I of compound A) in different solvents; conditions: in tetrahydrofuran, acetone, 2-butanone, acetonitrile and ethyl acetate
# Protocol: About 2 mg of the starting material was weighed and added into a sample bottle, and different solvents were added respectively, until the starting material was dissolved.
# [5] = Stability study of the crystal form I of compound A and the crystal form I of compound A p-toluenesulfonate (HPLC, XRPD); conditions: 7 days at 40° C./75% RH and 60° C.
# Protocol: A certain amount of samples of the crystal form I of compound A and the crystal form I of compound A p-toluenesulfonate (Batch No.: PTSA-A1) were placed in a stability test chamber, and kept at 40° C./75%RH and 60° C. for 7 days, respectively. The samples were tested by HPLC and XRPD at various time points.
# [6] = Solubility study in SGF, FaSSIF and FeSSIF (HPLC of filtrate, XRPD of solid)
# Protocol: The solubilities of the crystal form I of compound A and the crystal form I of compound A p-toluenesulfonate in SGF (simulated gastric fluid), FaSSIF (fasted state simulated intestinal fluid) and FeSSIF (fed state simulated intestinal fluid) were studied.
# The solubilities of samples in SGF, FaSSIF and FeSSIF at 37° C. for 24 hours were determined. 40 mg of the sample was placed in a sample bottle, and 1.5 mL of solvent was added. The mixture was mixed well, and shaken on a shaker at 200 rpm for 24 hours. The suspension was filtered at 0.5, 2 and 24 hours. The filtrate was analyzed by HPLC, and the solid was tested by XRPD.
# [7] = Heating of the crystal form by DSC (solvent removal); conditions: heated to 150° C. by DSC
# Protocol: The instrument model for differential scanning calorimetry analysis was DSC Q200 or Discovery DSC 250 (TA, USA). Samples were accurately weighed and placed in a punctured sample pot for DSC, and the exact mass of the sample was recorded. The samples were heated to the final temperature (e.g. 300° C. or 350° C.) at a ramp rate of 10° C./min.
# The collected crystal form I of compound A was subjected to DSC analysis by General method 4. […] The crystal form I of compound A was heated to 150° C. by DSC and then the solvent was removed.
# [8] = Grinding research of crystal forms (XRPD before and after grinding); conditions: ground in a mortar at room temperature
# Text: The solid XRPDs before and after grinding were compared.
# [9] = Stability study of the crystal form VI of compound A (high temperature, high humidity, light)
structure (smiles),measurement,setting,value
"O=C(Nc1ccc(OC(F)(F)Cl)cc1)c1cnc(N2CC[C@@H](F)C2)c(-c2cnccn2)c1 [compound A, (R)-N-(4-(chlorodifluoromethoxy)phenyl)-6-(3-fluoropyrrolidin-1-yl)-5-(pyrazin-2-yl)nicotinamide]",dissolution of compound A in the formulation,[1]; colloidal silica 200 (glidant) added,improved
same,dissolution of compound A in the formulation,[1]; increasing amount of sodium lauryl sulfate (solubilizer),decreased
"O=C(Nc1ccc(OC(F)(F)Cl)cc1)c1cnc(N2CC[C@@H](F)C2)c(-c2cnccn2)c1 [crystal form I of compound A, (R)-N-(4-(chlorodifluoromethoxy)phenyl)-6-(3-fluoropyrrolidin-1-yl)-5-(pyrazin-2-yl)nicotinamide]",water absorption,[2]; 0-60%RH,about 0.2%
same,water absorption,[2]; 0-80%RH,about 0.7%
same,water absorption,[2]; 0-90%RH,about 1.3%
same,hygroscopicity (DVS),[2]; moisture range 0% to 90%,slightly hygroscopic
same,Solubility,"[3]; ACN, became clear at 50° C.",298 mg/mL
same,Solubility,"[3]; Acetone, became clear at 50° C.",150 mg/mL
same,Solubility,"[3]; Isobutanol, became clear at 70° C.",10.1 mg/mL
same,Solubility,"[3]; MeOH, became clear at 50° C.",34.1 mg/mL
same,solubility in solvents (in words),[4],good solubility
same,crystal form stability (XRPD),[5],remained unchanged
same,solubility compared with the other form,"[6]; FeSSIF vehicle, 0.5 and 2 hours, 37° C.",higher solubility than that of the p-toluenesulfonate
same,crystal form of the undissolved solid (XRPD),"[6]; SGF, FaSSIF and FeSSIF for 2 hours",changed
same,dependence of solubility on pH,"[6]; SGF, FaSSIF, FeSSIF, 37° C.",affected by pH value
same,crystal form after heating and solvent removal,[7],changed into the crystal form VI
"O=C(Nc1ccc(OC(F)(F)Cl)cc1)c1cnc(N2CC[C@@H](F)C2)c(-c2cnccn2)c1 [crystal form III of compound A, (R)-N-(4-(chlorodifluoromethoxy)phenyl)-6-(3-fluoropyrrolidin-1-yl)-5-(pyrazin-2-yl)nicotinamide]",solid form / crystallinity after grinding (XRPD),[8]; listed as crystal form III,transformed into amorphous forms
"O=C(Nc1ccc(OC(F)(F)Cl)cc1)c1cnc(N2CC[C@@H](F)C2)c(-c2cnccn2)c1 [crystal form VI of compound A, (R)-N-(4-(chlorodifluoromethoxy)phenyl)-6-(3-fluoropyrrolidin-1-yl)-5-(pyrazin-2-yl)nicotinamide]",water absorption,[2]; 0-80%RH,1.1852%
same,water absorption,[2]; 0-90%RH,1.7452%
same,water absorption,[2]; 10%RH,0.1389%
same,crystal form after DVS test (XRPD),[2]; before and after DVS test,not changed
same,solid form / crystallinity after grinding (XRPD),[8],slightly decreased
same,"stability (appearance, crystal form and related substances)",[9]; 10 days under the condition of light,stable
same,"stability (appearance, crystal form and related substances)","[9]; 30 days, 60° C., 25° C./92.5%RH, 40° C./75%RH, and light (visible 4500 Lux, near-UV 85µw/cm^2)",stable
same,crystal form after stability test (XRPD),"[9]; high temperature, high humidity, high temperature and high humidity, light",not changed
"O=C(Nc1ccc(OC(F)(F)Cl)cc1)c1cnc(N2CC[C@@H](F)C2)c(-c2cnccn2)c1 [crystal form VII of compound A, (R)-N-(4-(chlorodifluoromethoxy)phenyl)-6-(3-fluoropyrrolidin-1-yl)-5-(pyrazin-2-yl)nicotinamide]",solid form / crystallinity after grinding (XRPD),[8]; listed as crystal form VII,transformed into amorphous forms
